Experimental data as given in ChEMBL document CHEMBL5376011, “Discovery of Anti-Hypercholesterolemia Agents Targeting LXRα from Marine Microorganism-Derived Natural Products” (J Nat Prod, 2024).
Active and inactive are the calls of the source.

Key:
Mus musculus [1] = experiment: Antihypercholesterolemic activity against high cholesterol diet fed C57BL/6J mouse assessed as reduction in SCD1 protein level at 300 microg/kg, ip administered every 2 days for 15 days by Western blot analysis; assay type: functional, organism-based; conditions: dose 300.0 µg/kg, time 15.0 day
Mus musculus [2] = experiment: Antihypercholesterolemic activity against high cholesterol diet fed C57BL/6J mouse assessed as reduction in degree of hepatic steatosis at 300 microg/kg, ip administered every 2 days for 15 days by Oil red staining based analysis; assay type: functional, organism-based; conditions: dose 300.0 µg/kg, time 15.0 day
Mus musculus [3] = experiment: Antihypercholesterolemic activity against high cholesterol diet fed C57BL/6J mouse assessed as improvement in hepatocyte degeneration at 300 microg/kg, ip administered every 2 days for 15 days by H&E staining based analysis; assay type: functional, organism-based; conditions: dose 300.0 µg/kg, time 15.0 day
Mus musculus [4] = experiment: Antihypercholesterolemic activity against high cholesterol diet induced C57BL/6J mouse assessed as reduction in hepatocyte damage at 300 microg/kg, ip administered every 2 days for 15 days; assay type: functional, organism-based; conditions: dose 300.0 µg/kg, time 15.0 day
Mus musculus [5] = experiment: Antihypercholesterolemic activity against high cholesterol diet fed C57BL/6J mouse assessed as reduction of fine vacuoles in the cytoplasm at 300 microg/kg, ip administered every 2 days for 15 days by H&E staining based analysis; assay type: functional, organism-based; conditions: dose 300.0 µg/kg, time 15.0 day
Mus musculus [6] = experiment: Antihypercholesterolemic activity against high cholesterol diet fed LXRalpha knockout C57BL/6J mouse assessed as reduction in serum triglycerides level at 300 microg/kg, ip administered every 2 days for 15 days; assay type: functional, organism-based; conditions: dose 300.0 µg/kg, time 15.0 day
Mus musculus [7] = experiment: Antihypercholesterolemic activity against high cholesterol diet fed LXRalpha knockout C57BL/6J mouse assessed as upregulation in CYP7A1 protein level at 300 microg/kg, ip administered every 2 days for 15 days by Western blot analysis; assay type: functional, organism-based; conditions: dose 300.0 µg/kg, time 15.0 day
Mus musculus [8] = experiment: Antihypercholesterolemic activity against high cholesterol diet induced C57BL/6J mouse assessed as reduction in total cholesterol level in plasma at 300 microg/kg, ip administered every 2 days for 15 days; assay type: functional, organism-based; conditions: dose 300.0 µg/kg, time 15.0 day
[9] = molecular target: T1, Oxysterols receptor LXR-alpha (Homo sapiens) (UniProt Q13133); experiment: Agonist activity at LXRalpha in human HepG2 cells assessed as upregulation of ABCA1 mRNA expression by measuring fold change at 25 uM incubated for 24 hrs by RT-qPCR analysis; assay type: cell-based; conditions: filed as agonist
T1 sequence (whole entry): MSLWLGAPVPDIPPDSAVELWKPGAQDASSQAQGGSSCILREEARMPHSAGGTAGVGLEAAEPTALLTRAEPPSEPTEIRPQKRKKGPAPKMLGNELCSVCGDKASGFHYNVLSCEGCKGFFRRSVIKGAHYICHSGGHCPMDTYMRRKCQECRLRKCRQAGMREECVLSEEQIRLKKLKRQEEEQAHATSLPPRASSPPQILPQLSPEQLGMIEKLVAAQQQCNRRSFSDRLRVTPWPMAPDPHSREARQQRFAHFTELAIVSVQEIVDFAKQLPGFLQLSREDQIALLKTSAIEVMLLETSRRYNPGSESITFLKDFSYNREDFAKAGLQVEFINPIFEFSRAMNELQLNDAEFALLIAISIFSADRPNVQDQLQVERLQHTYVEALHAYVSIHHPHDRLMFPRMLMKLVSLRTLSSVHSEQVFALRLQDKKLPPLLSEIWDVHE

Mus musculus [10] = experiment: Antihypercholesterolemic activity against high cholesterol diet fed LXRalpha knockout C57BL/6J mouse assessed as improvement in liver lipid droplet accumulation at 300 microg/kg, ip administered every 2 days for 15 days by H&E staining based analysis; assay type: functional, organism-based; conditions: dose 300.0 µg/kg, time 15.0 day
[11] = Cytotoxicity against human HepG2 cells assessed as reduction in cell viability incubated for 24 hrs by CCK8 assay; assay type: toxicity, cell-based
HepG2 = experiment: Improvement of lipid metabolism in palmitic acid and oleic acid induced human HepG2 cell model of hepatic steatosis assessed as reduction in lipid droplets at 25 uM preincubated with palmitic acid and oleic acid for 48 hrs followed by compound addition and measured after 24 hrs by Oil Red O staining based analysis; assay type: functional
Mus musculus [12] = experiment: Antihypercholesterolemic activity against high cholesterol diet fed LXRalpha knockout C57BL/6J mouse assessed as reduction in serum aspartate aminotransferase level at 300 microg/kg, ip administered every 2 days for 15 days; assay type: functional, organism-based; conditions: dose 300.0 µg/kg, time 15.0 day
Mus musculus [13] = experiment: Antihypercholesterolemic activity against high cholesterol diet fed C57BL/6J mouse assessed as reduction in hepatocyte lysis necrosis at 300 microg/kg, ip administered every 2 days for 15 days by H&E staining based analysis; assay type: functional, organism-based; conditions: dose 300.0 µg/kg, time 15.0 day
Mus musculus [14] = experiment: Antihypercholesterolemic activity against high cholesterol diet fed LXRalpha knockout C57BL/6J mouse assessed as improvement in hepatic steatosis at 300 microg/kg, ip administered every 2 days for 15 days by Oil red staining based analysis; assay type: functional, organism-based; conditions: dose 300.0 µg/kg, time 15.0 day
[15] = molecular target: T2, Oxysterols receptor LXR-alpha (Homo sapiens, UniProt Q13133); experiment: Binding affinity to full length human LXRalpha assessed as dissociation constant by SPR analysis
T2 sequence (Q13133 whole entry): T1 sequence (whole entry)

Mus musculus [16] = experiment: Antihypercholesterolemic activity against high cholesterol diet fed C57BL/6J mouse assessed as improvement in hepatocyte degeneration at 300 microg/kg, ip administered every 2 days for 15 days by Oil red staining based analysis; assay type: functional, organism-based; conditions: dose 300.0 µg/kg, time 15.0 day
Mus musculus [17] = experiment: Antihypercholesterolemic activity against high cholesterol diet fed C57BL/6J mouse assessed as reduction in FASN protein level at 300 microg/kg, ip administered every 2 days for 15 days by Western blot analysis; assay type: functional, organism-based; conditions: dose 300.0 µg/kg, time 15.0 day
Mus musculus [18] = experiment: Antihypercholesterolemic activity against high cholesterol diet fed C57BL/6J mouse assessed as improvement in hepatocyte liposis at 300 microg/kg, ip administered every 2 days for 15 days by Oil red staining based analysis; assay type: functional, organism-based; conditions: dose 300.0 µg/kg, time 15.0 day
[19] = molecular target: T1, Oxysterols receptor LXR-alpha (Homo sapiens); experiment: Agonist activity at LXRalpha in human HepG2 cells assessed as upregulation of CYP7A1 mRNA expression by measuring fold change at 25 uM incubated for 24 hrs by RT-qPCR analysis; assay type: cell-based; conditions: filed as agonist
Mus musculus [20] = experiment: Antihypercholesterolemic activity against high cholesterol diet induced C57BL/6J mouse assessed as reduction in serum aspartate aminotransferase level at 300 microg/kg, ip administered every 2 days for 15 days; assay type: functional, organism-based; conditions: dose 300.0 µg/kg, time 15.0 day
Mus musculus [21] = experiment: Antihypercholesterolemic activity against high cholesterol diet fed LXRalpha knockout C57BL/6J mouse assessed as reduction in serum total cholesterol level at 300 microg/kg, ip administered every 2 days for 15 days; assay type: functional, organism-based; conditions: dose 300.0 µg/kg, time 15.0 day

COc1ccc2c3c([nH]c2c1)[C@H](C=C(C)C)N1C(=O)[C@@H]2CCCN2C(=O)[C@]1(O)[C@H]3O
2.13: fold change (FC) [9]
inactive: Activity (Mus musculus [6]) | Activity (Mus musculus [7]) | Activity (Mus musculus [12]) | Activity (Mus musculus [21])
active: Activity (Mus musculus [1]) | Activity (Mus musculus [2]) | Activity (Mus musculus [3]) | Activity (Mus musculus [4]) | Activity (Mus musculus [5]) | Activity (Mus musculus [8]) | Activity (Mus musculus [10]) | Activity (HepG2) | Activity (Mus musculus [13]) | Activity (Mus musculus [14]) | Activity (Mus musculus [16]) | Activity (Mus musculus [17]) | Activity (Mus musculus [18]) | Activity (Mus musculus [20])
5.6 nM: Kd [15]
> 50000 nM: IC50 at 24 h [11]
5.02: fold change (FC) [19]
